The values below are quoted from earlier work in patent US20080003278A1, “Food products and dietary supplements for improving mental performance” (priority 2006, published 2008).

The data set concerns epileptic seizures. The following applies: thirty-one patients participating in the study.

Consider `CCOC(=O)C1=C[C@]2(CC)CCCN3CCc4c(n1c1ccccc41)[C@@H]32` [vinpocetine], for which the “patients in whom the frequency of epileptic seizures was reduced and, in some cases, seizures completely eliminated” value was “twenty of the thirty-one”.
